Test results taken from patent US20240391875A1, “ISOQUINOLINONES AND QUINOLINONES AS MODULATORS OF POLRMT” (Pretzel Therapeutics, Inc., priority 2021, published 2024).
pIC50: −log10 of the molar value.

target: POLRMT (Homo sapiens, UniProt O00411); assay: homogeneous TR-FRET assay of mitochondrial transcription (inhibition of POLRMT); assay type: biochemical; conditions: isoquinolinone compounds (Table 1)
Summary of the method: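 Recombinant POLRMT (7.5 nM) with TFB2M, TFAM and linearized LSP plasmid template, 500 μM NTPs, pH 7.5 Mg buffer; 60 min at 37° C. Reaction stopped with EDTA/high-salt buffer, 407 bp RNA transcript detected by hybridized ATTO647/Europium-cryptate probe pair; TR-FRET 665/620 nm ratio taken as transcript yield.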

POLRMT, sequence (O00411 42-1230): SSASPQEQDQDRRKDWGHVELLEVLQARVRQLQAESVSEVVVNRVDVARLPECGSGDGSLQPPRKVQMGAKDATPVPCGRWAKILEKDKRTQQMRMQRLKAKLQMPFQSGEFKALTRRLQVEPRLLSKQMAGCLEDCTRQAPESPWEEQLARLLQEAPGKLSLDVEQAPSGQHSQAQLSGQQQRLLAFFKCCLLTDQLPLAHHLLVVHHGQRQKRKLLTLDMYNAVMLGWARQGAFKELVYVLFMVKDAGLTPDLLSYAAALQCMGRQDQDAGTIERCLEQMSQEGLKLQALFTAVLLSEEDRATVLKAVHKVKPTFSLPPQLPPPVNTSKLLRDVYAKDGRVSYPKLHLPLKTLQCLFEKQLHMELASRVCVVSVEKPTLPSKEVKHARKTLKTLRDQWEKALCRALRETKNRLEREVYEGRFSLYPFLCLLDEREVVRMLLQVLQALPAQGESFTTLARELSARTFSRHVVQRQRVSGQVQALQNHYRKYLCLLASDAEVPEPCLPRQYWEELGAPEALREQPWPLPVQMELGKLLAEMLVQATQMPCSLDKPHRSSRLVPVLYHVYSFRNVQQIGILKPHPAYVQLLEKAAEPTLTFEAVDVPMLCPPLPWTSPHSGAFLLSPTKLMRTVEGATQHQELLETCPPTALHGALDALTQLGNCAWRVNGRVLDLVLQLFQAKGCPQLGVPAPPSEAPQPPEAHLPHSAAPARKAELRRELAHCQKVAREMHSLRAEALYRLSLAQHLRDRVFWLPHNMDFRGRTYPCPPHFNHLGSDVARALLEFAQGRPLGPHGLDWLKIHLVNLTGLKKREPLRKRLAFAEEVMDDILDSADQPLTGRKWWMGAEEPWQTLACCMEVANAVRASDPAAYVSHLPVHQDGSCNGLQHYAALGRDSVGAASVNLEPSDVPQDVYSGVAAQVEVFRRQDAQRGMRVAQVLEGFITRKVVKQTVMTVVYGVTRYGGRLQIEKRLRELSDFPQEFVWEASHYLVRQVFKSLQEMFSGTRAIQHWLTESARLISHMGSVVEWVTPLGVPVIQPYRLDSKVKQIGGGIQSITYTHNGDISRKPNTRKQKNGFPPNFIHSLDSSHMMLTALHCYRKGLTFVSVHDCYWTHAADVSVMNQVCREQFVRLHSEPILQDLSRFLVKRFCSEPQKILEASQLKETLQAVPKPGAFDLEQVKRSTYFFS

First: C[C@@H](Oc1ccc2c(-c3ccc(F)cc3Cl)c[nH]c(=O)c2c1)C(=O)N1CCOC[C@@H]1CO [Example 114, 4-(2-chloro-4-fluorophenyl)-7-(((R)-1-((S)-3-(hydroxymethyl)morpholino)-1-oxopropan-2-yl)oxy)isoquinolin-1(2H)-one]
Second: C[C@@H](Oc1ccc2c(-c3ccc(F)cc3Cl)c[nH]c(=O)c2c1)C(=O)N1CCOC[C@H]1C(=O)O [Example 112, (S)-4-((R)-2-((4-(2-chloro-4-fluorophenyl)-1-oxo-1,2-dihydroisoquinolin-7-yl)oxy)propanoyl)morpholine-3-carboxylic acid]
The pIC50 of the first is 1.30 log units higher: 6.70 for the first, 5.40 for the second.

Compared with Cc1ccccc1-c1c[nH]c(=O)c2cc(OCC(N)=O)ccc12 [Example 63, 2-((1-oxo-4-(o-tolyl)-1,2-dihydroisoquinolin-7-yl)oxy)acetamide], COCC(C)Oc1ccc2c(-c3ccccc3C)c[nH]c(=O)c2c1 (single isomer, unassigned) [Example 26, 7-((1-methoxypropan-2-yl)oxy)-4-(o-tolyl)isoquinolin-1(2H)-one] is 0.48 log units higher in pIC50: 5.52 for the first, 6.00 for the second.

Compared with C[C@H](Oc1ccc2c(-c3ccc(F)cc3Cl)c[nH]c(=O)c2c1)C(=O)N1CCC(C(=O)O)CC1 [Example 60, (S)-1-(2-((4-(2-chloro-4-fluorophenyl)-1-oxo-1,2-dihydroisoquinolin-7-yl)oxy)propanoyl)piperidine-4-carboxylic acid], C[C@@H](Oc1ccc2c(-c3ccc(F)cc3Cl)c[nH]c(=O)c2c1)C(=O)N1CCO[C@H](C(=O)O)C1 [Example 121, (S)-4-((R)-2-((4-(2-chloro-4-fluorophenyl)-1-oxo-1,2-dihydroisoquinolin-7-yl)oxy)propanoyl)morpholine-2-carboxylic acid] is 2.29 log units higher in pIC50: 4.41 for the first, 6.70 for the second.

First: C[C@@H]1CN(C(=O)[C@@H](C)Oc2ccc3c(-c4ccc(F)cc4Cl)c[nH]c(=O)c3c2)C[C@H](C)O1 [Example 100, 4-(2-chloro-4-fluorophenyl)-7-(((R)-1-((2S,6R)-2,6-dimethylmorpholino)-1-oxopropan-2-yl)oxy)isoquinolin-1(2H)-one]
Second: C[C@@H](Oc1ccc2c(-c3ccc(F)cc3Cl)c[nH]c(=O)c2c1)C(=O)N1CCS(=N)(=O)CC1 [Example 139, (R)-4-(2-chloro-4-fluorophenyl)-7-((1-(1-imino-1-oxido-1λ^6-thiomorpholino)-1-oxopropan-2-yl)oxy)isoquinolin-1(2H)-one]
The pIC50 of the first is 1.30 log units higher: 7.00 for the first, 5.70 for the second. The first is the more potent here.

First: Cc1cccc(C)c1-c1c[nH]c(=O)c2cc(O[C@H](C)C(=O)O)ccc12 [Example 111, (R)-2-((4-(2,6-dimethylphenyl)-1-oxo-1,2-dihydroisoquinolin-7-yl)oxy)propanoic acid]
Second: Cc1ccccc1-c1c[nH]c(=O)c2cc(NC(C)C(N)=O)ccc12 (stereo not drawn) [Example 68]
The pIC50 of the first is 2.09 log units higher: 7.05 for the first, 4.96 for the second. The first is the more potent here.

Work on Cc1c(F)cccc1-c1c[nH]c(=O)c2cc(OCC#N)ccc12 [Example 135, 2-((4-(3-fluoro-2-methylphenyl)-1-oxo-1,2-dihydroisoquinolin-7-yl)oxy)acetonitrile] yielded a pIC50 of 6.70.

same assay, conditions: quinolinone compounds (Table 2)

In the case of C[C@@H](Oc1ccc2c(-c3ccc(F)cc3Cl)cc(=O)[nH]c2c1)C(=O)N1CCCCC1 [Example Q5, (R)-4-(2-chloro-4-fluorophenyl)-7-((1-oxo-1-(piperidin-1-yl)propan-2-yl)oxy)quinolin-2(1H)-one], the pIC50 was 5.30.
